Results on 12 molecules are retold here after patent US9375459B2, “Cyclic peptides with an anti-neoplasic and anti-angiogenic activity” (priority 2011, dated 2016).

The subject of this data set is human tumor cells. Briefly: Cytotoxic activity screening of peptide library on human tumor cell lines, SRB method. Type of data set: cell-based. Conditions: for Cytotoxic activity in vitro: SRB method, cytotoxic = dose-dependent 50% inhibition of proliferation, GI50 below 100 μM in at least one cell line. The method, then:
Negative control cells were cultured on a volume of vehicle equal to that of the experimental samples. An “x-y” curve (dose-response) was established with the percent of surviving cells, compared in respect to the negative control cells, and the following parameters were estimated: 50% growth inhibition (GI50); Total growth inhibition (TGI); and the lethal concentration 50 (LC50), that is the concentration causing the 50% of cell death (Boyd M R, Paull K D, and Rubinstein L R (1992) “Data display and analysis strategies for the NCI Disease Oriented In-Vitro Antitumor Drug Screen, in Cytotoxic Anticancer Drugs: Models and Concept for Drug Discovery and Development” (Baleriote F A, Corbett T H and Baker L H eds) pp 11-34, Kluwer Academia Publishers, Boston).
Were considered as cytotoxic peptides all those peptides being able of inhibiting 50% of the cellular proliferation, in a dose-dependent manner, and showing GI50 values below 100 μM, at least in one of the cell lines studied. The human tumor cell lines used were: HEp-2 (larynx carcinoma), A549 (lung epithelial adenocarcinoma), M14 (melanoma), Colo 205 (colon adenocarcinoma), Ls174T (colon adenocarcinoma), LnCAP (prostate carcinoma), PC-3 (prostate carcinoma) and H 125 (non-small cell lung adenocarcinoma). Represented are primary sequences for the designed peptides, the code used for its generation and their respective cytotoxic capacity on human tumor cells.
For orientation: In SRB staining, fixed cells bind dye roughly in proportion to their protein.

“Also recorded” adds a separate entry of the source. Where a SMILES comes first, the peptide text is derived from it. Where no end group is shown, it is not given here.

For the molecule `CC[C@H](C)[C@H](NC(=O)[C@@H](NC(=O)[C@H](CCCCN)NC(=O)[C@H](CCC(N)=O)NC(=O)[C@H](CO)NC(=O)[C@H](CC(N)=O)NC(=O)[C@H](CO)NC(=O)[C@@H](NC(=O)[C@@H](NC(=O)[C@H](CO)NC(=O)[C@H](CC(C)C)NC(=O)[C@H](Cc1ccccc1)NC(=O)[C@H](CC(=O)O)NC(=O)[C@H](CCCNC(=N)N)NC(=O)CNC(=O)[C@@H](N)[C@@H](C)O)[C@@H](C)O)[C@@H](C)O)C(C)C)C(=O)N[C@@H](Cc1ccccc1)C(=O)N[C@@H](C)C(=O)N[C@@H](C)C(=O)N[C@@H](Cc1c[nH]c2ccccc12)C(N)=O` [Peptide F07P16] (H-TGRDFLSTTSNSQKVIFAAW-NH2), the “Cytotoxic activity in vitro” value was “− (symbol − indicates its absence, following criteria established in Example 2)”. Moreover, the “cytotoxic / biological activity in vitro on tumor cells” value (peptide library screening) is “no cytotoxic activity; also recorded: inactive”.

Consider `CC[C@H](C)[C@H](NC(=O)[C@H](CCCNC(=N)N)NC(=O)[C@H](CCC(N)=O)NC(=O)[C@H](CC(N)=O)NC(=O)[C@H](C)NC(=O)[C@@H](NC(=O)[C@H](Cc1ccc(O)cc1)NC(=O)CNC(=O)[C@H](CO)NC(=O)[C@H](Cc1ccccc1)NC(=O)[C@H](CC(=O)O)NC(=O)[C@H](Cc1ccccc1)NC(=O)[C@@H](NC(=O)[C@H](CC(=O)O)NC(=O)[C@H](CC(N)=O)NC(=O)CNC(=O)CNC(=O)[C@H](C)NC(=O)[C@@H](N)CC(=O)O)[C@@H](C)O)[C@@H](C)O)C(=O)N[C@@H](CC(N)=O)C(N)=O` [Peptide M07P39] (H-DAGGNDTFDFSGYTANQRIN-NH2), for which the “Cytotoxic activity in vitro” value is on record as “− (symbol − indicates its absence, following criteria established in Example 2)”. Still for that read-out and setting: in the case of `CC[C@H](C)[C@H](NC(=O)[C@H](CC(=O)O)NC(=O)[C@H](CCCCN)NC(=O)CNC(=O)[C@H](C)NC(=O)CNC(=O)CNC(=O)[C@H](Cc1c[nH]c2ccccc12)NC(=O)[C@H](CC(C)C)NC(=O)[C@H](CCC(=O)O)NC(=O)[C@@H](N)CC(=O)O)C(=O)N[C@@H](Cc1ccccc1)C(=O)N[C@H](C(=O)N[C@@H](Cc1ccccc1)C(=O)N[C@@H](CO)C(=O)N[C@@H](C)C(=O)N[C@@H](C)C(=O)N[C@@H](CO)C(=O)N[C@@H](CC(=O)O)C(=O)N[C@@H](CO)C(N)=O)C(C)C` [Peptide O07P102] (H-DELWGGAGKDIFVFSAASDS-NH2) it was “− (symbol − indicates its absence, following criteria established in Example 2)”. Take `CC[C@H](C)[C@H](N)C(=O)N[C@@H](Cc1ccccc1)C(=O)N[C@H](C(=O)N[C@@H](Cc1ccccc1)C(=O)N[C@@H](CO)C(=O)N[C@@H](C)C(=O)N[C@@H](C)C(=O)N[C@@H](CO)C(=O)N[C@@H](CC(=O)O)C(=O)N[C@@H](CO)C(=O)N[C@@H](C)C(=O)N1CCC[C@H]1C(=O)NCC(=O)N[C@@H](C)C(=O)N[C@@H](CO)C(=O)N[C@@H](CC(=O)O)C(=O)N[C@@H](Cc1c[nH]c2ccccc12)C(=O)N[C@H](C(=O)N[C@@H](CCCNC(=N)N)C(=O)N[C@@H](CC(=O)O)C(N)=O)[C@@H](C)CC)C(C)C` [Peptide O07P103] (H-IFVFSAASDSAPGASDWIRD-NH2): the “Cytotoxic activity in vitro” value is reported as “− (symbol − indicates its absence, following criteria established in Example 2)”.

With `CC[C@H](C)[C@H](NC(=O)CNC(=O)[C@H](CCCCN)NC(=O)[C@H](CCC(N)=O)NC(=O)[C@H](Cc1ccccc1)NC(=O)[C@H](CC(=O)O)NC(=O)[C@H](CCCNC(=N)N)NC(=O)[C@@H](NC(=O)[C@H](Cc1c[nH]c2ccccc12)NC(=O)[C@H](CC(=O)O)NC(=O)[C@H](CO)NC(=O)[C@H](C)NC(=O)CNC(=O)[C@@H]1CCCN1C(=O)[C@H](C)N)[C@@H](C)CC)C(=O)N[C@@H](CC(=O)O)C(=O)N[C@@H](CCCCN)C(=O)N[C@H](C(=O)N[C@@H](CC(=O)O)C(=O)N[C@@H](CC(C)C)C(N)=O)[C@@H](C)CC` [Peptide O07P104] (H-APGASDWIRDFQKGIDKIDL-NH2), the “Cytotoxic activity in vitro” value was “− (symbol − indicates its absence, following criteria established in Example 2)”. Still for that read-out and setting: the value for `CC[C@H](C)[C@H](NC(=O)CNC(=O)[C@H](CCCCN)NC(=O)[C@H](CCC(N)=O)NC(=O)[C@@H](N)Cc1ccccc1)C(=O)N[C@@H](CC(=O)O)C(=O)N[C@@H](CCCCN)C(=O)N[C@H](C(=O)N[C@@H](CC(=O)O)C(=O)N[C@@H](CC(C)C)C(=O)N[C@@H](CO)C(=O)N[C@@H](Cc1ccccc1)C(=O)N[C@@H](Cc1ccccc1)C(=O)N[C@@H](CC(N)=O)C(=O)N[C@@H](CCCCN)C(=O)N[C@@H](CCC(=O)O)C(=O)N[C@@H](C)C(=O)N[C@@H](CC(N)=O)C(=O)N[C@@H](CO)C(=O)N[C@@H](CO)C(N)=O)[C@@H](C)CC` [Peptide O07P105] (H-FQKGIDKIDLSFFNKEANSS-NH2) was “− (symbol − indicates its absence, following criteria established in Example 2)”; that for `CC[C@H](C)[C@H](NC(=O)[C@H](Cc1ccccc1)NC(=O)[C@H](CC(=O)O)NC(=O)[C@H](CO)NC(=O)[C@H](CO)NC(=O)[C@H](CC(N)=O)NC(=O)[C@H](C)NC(=O)[C@H](CCC(=O)O)NC(=O)[C@H](CCCCN)NC(=O)[C@H](CC(N)=O)NC(=O)[C@H](Cc1ccccc1)NC(=O)[C@H](Cc1ccccc1)NC(=O)[C@@H](N)CO)C(=O)N[C@@H](Cc1c[nH]cn1)C(=O)N[C@@H](Cc1ccccc1)C(=O)N[C@H](C(=O)N[C@@H](CC(=O)O)C(=O)N[C@@H](Cc1c[nH]cn1)C(=O)N[C@@H](Cc1ccccc1)C(=O)N[C@@H](CO)C(N)=O)C(C)C` [Peptide O07P106] (H-SFFNKEANSSDFIHFVDHFS-NH2) was “− (symbol − indicates its absence, following criteria established in Example 2)”. Take `CC[C@H](C)[C@H](NC(=O)[C@H](Cc1ccccc1)NC(=O)[C@@H](N)CC(=O)O)C(=O)N[C@@H](Cc1c[nH]cn1)C(=O)N[C@@H](Cc1ccccc1)C(=O)N[C@H](C(=O)N[C@@H](CC(=O)O)C(=O)N[C@@H](Cc1c[nH]cn1)C(=O)N[C@@H](Cc1ccccc1)C(=O)N[C@@H](CO)C(=O)NCC(=O)N[C@H](C(=O)N[C@@H](C)C(=O)NCC(=O)N[C@@H](CCC(=O)O)C(=O)N[C@@H](C)C(=O)N[C@@H](CC(C)C)C(=O)N[C@@H](CC(C)C)C(=O)N[C@@H](CO)C(=O)N[C@@H](Cc1ccc(O)cc1)C(N)=O)[C@@H](C)O)C(C)C` [Peptide O07P107] (H-DFIHFVDHFSGTAGEALLSY-NH2): the “Cytotoxic activity in vitro” value was “− (symbol − indicates its absence, following criteria established in Example 2)”. As for `CC(C)C[C@H](NC(=O)[C@H](C)NC(=O)[C@H](CCC(=O)O)NC(=O)CNC(=O)[C@H](C)NC(=O)[C@@H](NC(=O)CN)[C@@H](C)O)C(=O)N[C@@H](CC(C)C)C(=O)N[C@@H](CO)C(=O)N[C@@H](Cc1ccc(O)cc1)C(=O)N[C@@H](CC(N)=O)C(=O)N[C@@H](C)C(=O)N[C@@H](CO)C(=O)N[C@@H](CO)C(=O)N[C@@H](CC(N)=O)C(=O)N[C@H](C(=O)N[C@H](C(=O)N[C@@H](CC(=O)O)C(=O)N[C@@H](CC(C)C)C(=O)N[C@@H](CO)C(N)=O)[C@@H](C)O)C(C)C` [Peptide O07P108] (H-GTAGEALLSYNASSNVTDLS-NH2), the “Cytotoxic activity in vitro” value was “− (symbol − indicates its absence, following criteria established in Example 2)”.

Consider `CC[C@H](C)[C@H](NC(=O)[C@H](Cc1ccccc1)NC(=O)[C@H](CC(=O)O)NC(=O)[C@@H](NC(=O)[C@H](C)NC(=O)[C@@H](NC(=O)[C@@H](N)CC(=O)O)C(C)C)[C@@H](C)O)C(=O)N[C@H](C(N)=O)C(C)C` [Peptide U07P78, DVATDFIV- amide] (H-DVATDFIV-NH2), for which the “Cytotoxic activity in vitro” value is “− (symbol − indicates its absence, following criteria established in Example 2)”.

As to `CC[C@H](C)[C@H](NC(=O)[C@@H](NC(=O)[C@H](CC(=O)O)NC(=O)[C@H](CC(N)=O)NC(=O)CNC(=O)[C@@H](N)CO)C(C)C)C(=O)N[C@H](C(=O)NCC(=O)N[C@@H](CC(N)=O)C(=O)N[C@@H](C)C(=O)N[C@@H](C)C(=O)N[C@@H](CC(N)=O)C(=O)N[C@@H](CC(N)=O)C(=O)N[C@H](C(=O)N[C@@H](CC(C)C)C(=O)N[C@@H](CCCCN)C(=O)NCC(=O)NCC(=O)N[C@@H](C)C(=O)NCC(N)=O)C(C)C)C(C)C` [Peptide Y07P48] (H-SGNDVIVGNAANNVLKGGAG-NH2), the “Cytotoxic activity in vitro” value was “− (symbol − indicates its absence, following criteria established in Example 2)”. Same read-out and setting: the value for “NSQKVIFAAWDAGGNDTFDF- amide (NSQKVIFAAWDAGGNDTFDF-NH2) [Peptide M07P38]” was “− (symbol − indicates its absence, following criteria established in Example 2)”.
